According to article PMC4635063 (Cephalalgia : an international journal of headache, 2015):

Columns and labels:
[1] = target: T1, TRPM8 (transient receptor potential channel M8) (Rattus norvegicus, UniProt Q8R455); assay: agonist; type: cell-based
[2] = target: T1, TRPM8 (transient receptor potential channel M8); assay: aequorin luminescence calcium assay in CHO cells, inhibition of icilin; type: cell-based

T1 sequence (Q8R455 whole entry): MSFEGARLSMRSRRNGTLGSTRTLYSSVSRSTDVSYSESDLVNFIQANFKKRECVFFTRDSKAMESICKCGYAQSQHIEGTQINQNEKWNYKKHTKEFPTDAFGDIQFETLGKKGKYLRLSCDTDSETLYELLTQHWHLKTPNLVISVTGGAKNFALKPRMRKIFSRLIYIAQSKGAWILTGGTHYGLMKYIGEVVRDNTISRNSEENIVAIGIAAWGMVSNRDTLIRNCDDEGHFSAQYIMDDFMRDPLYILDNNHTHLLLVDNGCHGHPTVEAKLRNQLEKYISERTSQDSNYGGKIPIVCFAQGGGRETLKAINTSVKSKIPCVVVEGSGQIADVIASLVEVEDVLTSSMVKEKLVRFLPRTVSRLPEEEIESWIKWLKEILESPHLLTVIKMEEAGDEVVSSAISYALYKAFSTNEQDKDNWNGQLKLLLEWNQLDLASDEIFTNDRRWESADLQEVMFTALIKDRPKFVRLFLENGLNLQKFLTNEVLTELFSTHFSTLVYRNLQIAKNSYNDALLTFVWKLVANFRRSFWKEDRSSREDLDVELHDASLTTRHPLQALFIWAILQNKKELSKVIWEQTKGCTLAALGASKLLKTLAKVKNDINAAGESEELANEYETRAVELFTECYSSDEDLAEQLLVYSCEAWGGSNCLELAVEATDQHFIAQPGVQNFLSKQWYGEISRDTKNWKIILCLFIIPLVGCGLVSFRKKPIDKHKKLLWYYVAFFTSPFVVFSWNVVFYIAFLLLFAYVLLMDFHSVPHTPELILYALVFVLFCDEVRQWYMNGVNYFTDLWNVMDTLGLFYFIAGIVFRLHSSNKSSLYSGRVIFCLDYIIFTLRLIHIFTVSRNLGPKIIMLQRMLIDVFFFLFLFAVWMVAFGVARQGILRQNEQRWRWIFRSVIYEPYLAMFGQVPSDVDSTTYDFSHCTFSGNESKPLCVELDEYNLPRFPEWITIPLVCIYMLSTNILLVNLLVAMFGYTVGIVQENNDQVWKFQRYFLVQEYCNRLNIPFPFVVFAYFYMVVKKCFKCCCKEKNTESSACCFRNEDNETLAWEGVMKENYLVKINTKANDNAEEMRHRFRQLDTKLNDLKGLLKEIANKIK

IC50 [2]	Compound	agonist (1 uM) in aequorin luminescence calcium assay in CHO cells [1]
	O=C1NC(c2cccc([N+](=O)[O-])c2)=CCN1c1ccccc1O [icilin]	inhibition of TRPM8 activation by icilin and cold in cultured CHO cells stably transfected with rat TRPM8 channel
23 ± 0.9 nM	AMG1161	
